# Results taken from patent US6613718B2, “Aryl ether derivatives and processes for their preparation and herbicidal and desiccant compositions containing them” (Ishihara Sangyo Kaisha, Ltd., priority 2001, dated 2003).
# Experiments:
# Assay type in all cases: in vivo
# Conditions in all cases: 14 days after application
# [1] = tested on: upland rice (Oryza sp., var.Tebonnet, RICE); assay: Post-emerge greenhouse screening, crop safety (phytotoxicity rating)
# In short: (§1)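 Each compound, dissolved in acetone, was sprayed at 15–1000 g ai/ha. Pre-emerge pots were sown the previous day and watered from above right after treatment; post-emerge plants, 2-3 leaves, got 0.25% v/v surfactant. Injury was graded 0–100 on day 14.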
# [2] = tested on: soybean (Glycine max L., var. Pella 86, SOY); assay: as above
# In short: as §1
# [3] = tested on: field corn (Zea mays L., var. Dekalb 535, CORN); assay: Pre-emerge greenhouse screening, crop safety (phytotoxicity rating)
# In short: as §1
# [4] = tested on: upland rice (Oryza sp., var.Tebonnet, RICE); assay: as above
# In short: as §1
# [5] = tested on: soybean (Glycine max L., var. Pella 86, SOY); assay: as above
# In short: as §1
# [6] = tested on: redroot pigweed (Amaranthus retroflexus, AMARE); assay: Post-emerge greenhouse herbicide activity screening, phytotoxicity rating
# In short: as §1
# [7] = tested on: barnyardgrass (Echinochloa crus-galli, ECHCG); assay: as above
# In short: as §1
# [8] = tested on: ivyleaf morningglory (Ipomoea hederacea, IPOHE); assay: as above
# In short: as §1
# [9] = tested on: velvetleaf (Abutilon theophrasti, ABUTH); assay: as above
# In short: as §1
# [10] = tested on: lambsquarters (Chenopodium album, CHEAL); assay: as above
# In short: as §1
# [11] = tested on: green foxtail (Setaria viridis, SETVI); assay: as above
# In short: as §1
# [12] = tested on: johnsongrass (Sorghum halepense, SORHA); assay: as above
# In short: as §1
# [13] = tested on: large crabgrass (Digitaria sanguinalis, DIGSA); assay: as above
# In short: as §1
# [14] = tested on: sicklepod (Cassia obtusifolia, CASOB); assay: as above
# In short: as §1
# [15] = tested on: common ragweed (Ambrosia artemisiifolia L., AMBEL); assay: as above
# In short: as §1
# [16] = tested on: field corn (Zea mays L., var. Dekalb 535, CORN); assay: Post-emerge greenhouse screening, crop safety / corn selectivity (phytotoxicity rating)
# In short: as §1
# [17] = tested on: redroot pigweed (Amaranthus retroflexus, AMARE); assay: Pre-emerge greenhouse herbicide activity screening, phytotoxicity rating
# In short: as §1
# [18] = tested on: barnyardgrass (Echinochloa crus-galli, ECHCG); assay: as above
# In short: as §1
# [19] = tested on: ivyleaf morningglory (Ipomoea hederacea, IPOHE); assay: as above
# In short: as §1
# [20] = tested on: velvetleaf (Abutilon theophrasti, ABUTH); assay: as above
# In short: as §1
# [21] = tested on: lambsquarters (Chenopodium album, CHEAL); assay: as above
# In short: as §1
# [22] = tested on: green foxtail (Setaria viridis, SETVI); assay: as above
# In short: as §1
# [23] = tested on: johnsongrass (Sorghum halepense, SORHA); assay: as above
# In short: as §1
# [24] = tested on: large crabgrass (Digitaria sanguinalis, DIGSA); assay: as above
# In short: as §1
# [25] = tested on: sicklepod (Cassia obtusifolia, CASOB); assay: as above
# In short: as §1
# [26] = tested on: common ragweed (Ambrosia artemisiifolia L., AMBEL); assay: as above
# In short: as §1
compound,measurement,setting,value
Cn1c(C(F)(F)F)cc(=O)n(-c2cc(Oc3ccccc3C#N)c(Cl)cc2F)c1=S [Compound 1-66],"RICE crop damage, phytotoxicity rating (0-100 scale)",[1]; 125 g ai/ha,0
same,"RICE crop damage, phytotoxicity rating (0-100 scale)",[1]; 250 g ai/ha,0
same,"SOY crop damage, phytotoxicity rating (0-100 scale)",[2]; 125 g ai/ha,10
same,"SOY crop damage, phytotoxicity rating (0-100 scale)",[2]; 250 g ai/ha,10
same,"CORN crop damage, phytotoxicity rating (0-100 scale)",[3]; 125 g ai/ha,0
same,"CORN crop damage, phytotoxicity rating (0-100 scale)",[3]; 250 g ai/ha,0
same,"RICE crop damage, phytotoxicity rating (0-100 scale)",[4]; 125 g ai/ha,40
same,"RICE crop damage, phytotoxicity rating (0-100 scale)",[4]; 250 g ai/ha,45
same,"SOY crop damage, phytotoxicity rating (0-100 scale)",[5]; 125 g ai/ha,0
same,"SOY crop damage, phytotoxicity rating (0-100 scale)",[5]; 250 g ai/ha,0
same,AMARE phytotoxicity rating (0-100 scale),[6]; 125 g ai/ha,70
same,AMARE phytotoxicity rating (0-100 scale),[6]; 250 g ai/ha,70
same,ECHCG phytotoxicity rating (0-100 scale),[7]; 125 g ai/ha,0
same,ECHCG phytotoxicity rating (0-100 scale),[7]; 250 g ai/ha,0
same,IPOHE phytotoxicity rating (0-100 scale),[8]; 125 g ai/ha,70
same,IPOHE phytotoxicity rating (0-100 scale),[8]; 250 g ai/ha,85
same,ABUTH phytotoxicity rating (0-100 scale),[9]; 125 g ai/ha,90
same,ABUTH phytotoxicity rating (0-100 scale),[9]; 250 g ai/ha,90
same,CHEAL phytotoxicity rating (0-100 scale),[10]; 125 g ai/ha,98
same,CHEAL phytotoxicity rating (0-100 scale),[10]; 250 g ai/ha,100
same,SETVI phytotoxicity rating (0-100 scale),[11]; 125 g ai/ha,0
same,SETVI phytotoxicity rating (0-100 scale),[11]; 250 g ai/ha,0
same,SORHA phytotoxicity rating (0-100 scale),[12]; 125 g ai/ha,0
same,SORHA phytotoxicity rating (0-100 scale),[12]; 250 g ai/ha,0
same,DIGSA phytotoxicity rating (0-100 scale),[13]; 125 g ai/ha,0
same,DIGSA phytotoxicity rating (0-100 scale),[13]; 250 g ai/ha,0
same,CASOB phytotoxicity rating (0-100 scale),[14]; 125 g ai/ha,75
same,CASOB phytotoxicity rating (0-100 scale),[14]; 250 g ai/ha,75
same,AMBEL phytotoxicity rating (0-100 scale),[15]; 125 g ai/ha,75
same,AMBEL phytotoxicity rating (0-100 scale),[15]; 250 g ai/ha,75
same,"CORN crop damage, phytotoxicity rating (0-100 scale)",[16]; 125 g ai/ha,0
same,"CORN crop damage, phytotoxicity rating (0-100 scale)",[16]; 250 g ai/ha,0
same,AMARE phytotoxicity rating (0-100 scale),[17]; 125 g ai/ha,100
same,AMARE phytotoxicity rating (0-100 scale),[17]; 250 g ai/ha,100
same,ECHCG phytotoxicity rating (0-100 scale),[18]; 125 g ai/ha,55
same,ECHCG phytotoxicity rating (0-100 scale),[18]; 250 g ai/ha,60
same,IPOHE phytotoxicity rating (0-100 scale),[19]; 125 g ai/ha,90
same,IPOHE phytotoxicity rating (0-100 scale),[19]; 250 g ai/ha,100
same,ABUTH phytotoxicity rating (0-100 scale),[20]; 125 g ai/ha,85
same,ABUTH phytotoxicity rating (0-100 scale),[20]; 250 g ai/ha,99
same,CHEAL phytotoxicity rating (0-100 scale),[21]; 125 g ai/ha,100
same,CHEAL phytotoxicity rating (0-100 scale),[21]; 250 g ai/ha,100
same,SETVI phytotoxicity rating (0-100 scale),[22]; 125 g ai/ha,99
same,SETVI phytotoxicity rating (0-100 scale),[22]; 250 g ai/ha,100
same,SORHA phytotoxicity rating (0-100 scale),[23]; 125 g ai/ha,60
same,SORHA phytotoxicity rating (0-100 scale),[23]; 250 g ai/ha,75
same,DIGSA phytotoxicity rating (0-100 scale),[24]; 125 g ai/ha,90
same,DIGSA phytotoxicity rating (0-100 scale),[24]; 250 g ai/ha,99
same,CASOB phytotoxicity rating (0-100 scale),[25]; 125 g ai/ha,35
same,CASOB phytotoxicity rating (0-100 scale),[25]; 250 g ai/ha,65
same,AMBEL phytotoxicity rating (0-100 scale),[26]; 125 g ai/ha,60
same,AMBEL phytotoxicity rating (0-100 scale),[26]; 250 g ai/ha,65
